From US20110034414A1, “FLUOROALKYLOXY ALKANES, PROCESS FOR PRODUCTION AND USES THEREOF” (AL.CHI.MI.A. S.R.L., priority 2008, published 2011)

Assays:
[1] = Clarity (solubility) of mixtures of fluoroalkyloxy alkane with silicone oil 5,000 cS; assay type: physicochemical; design: key: ++: the mixture is clear after stirring at room temperature; +: the mixture is opalescent after stirring at room temperature, it becomes clear after heating at 37° C
Description: Various mixtures comprising a fluoroalkyloxy alkane obtained according to Examples 1, 3 and 4 and a silicone oil having a viscosity of 5,000 cS (at 20° C.) were prepared.
Table 4 contains the amounts of fluoroalkyloxy alkane in the various mixtures (expressed as weight % on the total weight of the mixture), and the result in terms of clarity of the solution at different temperatures.

[2] = Clarity (solubility) of mixtures of fluoroalkyloxy alkane with silicone oil 1,000 cS; assay type: physicochemical; design: key: ++: the mixture is clear after stirring at room temperature; +: the mixture is opalescent after stirring at room temperature, it becomes clear after heating at 37° C
Description: Various mixtures comprising a fluoroalkyloxy alkane obtained according to Examples 1, 3 and 4 and a silicone oil having a viscosity of 1,000 cS (at 20° C.) were prepared.
Table 3 contains the amounts of fluoroalkyloxy alkane in the various mixtures (expressed as weight % on the total weight of the mixture), and the result in terms of clarity of the solution at different temperatures.

[3] = 33% by weight fluoroalkyloxy alkane in silicone oil 5,000 cS (at 20° C.)
[4] = 43% by weight fluoroalkyloxy alkane in silicone oil 5,000 cS (at 20° C.)
[5] = 50% by weight fluoroalkyloxy alkane in silicone oil 5,000 cS (at 20° C.)
[6] = 60% by weight fluoroalkyloxy alkane in silicone oil 5,000 cS (at 20° C.)
[7] = 90% by weight fluoroalkyloxy alkane in silicone oil 5,000 cS (at 20° C.)
[8] = 33% by weight fluoroalkyloxy alkane in silicone oil 1,000 cS (at 20° C.)
[9] = 43% by weight fluoroalkyloxy alkane in silicone oil 1,000 cS (at 20° C.)
[10] = 50% by weight fluoroalkyloxy alkane in silicone oil 1,000 cS (at 20° C.)
[11] = 60% by weight fluoroalkyloxy alkane in silicone oil 1,000 cS (at 20° C.)
[12] = 90% by weight fluoroalkyloxy alkane in silicone oil 1,000 cS (at 20° C.)

| clarity of the solution [1, 3] | clarity of the solution [1, 4] | clarity of the solution [1, 5] | clarity of the solution [1, 6] | clarity of the solution [1, 7] | clarity of the solution [2, 8] | clarity of the solution [2, 9] | clarity of the solution [2, 10] | clarity of the solution [2, 11] | clarity of the solution [2, 12] | clarity of the solution ([1]; 20% by weight fluoroalkyloxy alkane in silicone oil 5,000 cS (at 20° C.)) | clarity of the solution ([2]; 20% by weight fluoroalkyloxy alkane in silicone oil 1,000 cS (at 20° C.)) | SMILES |
| --- | --- | --- | --- | --- | --- | --- | --- | --- | --- | --- | --- | --- |
| ++ | ++ | ++ | ++ | ++ | ++ | ++ | ++ | ++ | ++ | – | – | CCCOCCC(F)(F)C(F)(F)C(F)(F)C(F)(F)F [CF3(CF2)3CH2CH2O(CH2)2CH3] |
| ++ | ++ | ++ | ++ | ++ | ++ | ++ | ++ | ++ | ++ | – | – | CCCCCOCCC(F)(F)C(F)(F)C(F)(F)C(F)(F)F [CF3(CF2)3CH2CH2O(CH2)4CH3] |
| ++ | + | + | – | – | ++ | + | + | – | – | ++ | ++ | CCCCCOCCC(F)(F)C(F)(F)C(F)(F)C(F)(F)C(F)(F)C(F)(F)F [CF3(CF2)5CH2CH2O(CH2)4CH3] |
